Assay results from paper PMC4151706 (Journal of the American Chemical Society, 2014).

Biological target: HIV-1 protease WT subtype C (Human immunodeficiency virus type 1 group M subtype C, UniProt O12158)
Settings: protease variant subtype C

Chain of HIV-1 protease WT subtype C (O12158 485-583): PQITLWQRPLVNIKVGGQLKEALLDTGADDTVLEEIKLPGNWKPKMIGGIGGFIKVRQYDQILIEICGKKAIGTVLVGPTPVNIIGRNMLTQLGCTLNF

## CC(C)CN(C[C@@H](O)[C@H](Cc1ccccc1)NC(=O)O[C@H]1CO[C@H]2OCC[C@H]21)S(=O)(=O)c1ccc(N)cc1 [DRV, Darunavir]
  Ki: 5 ± 2 pM
